This passage reports IC50 results from US12187713B2, “Immunomodulators, compositions and methods thereof” (Betta Pharmaceuticals Co., Ltd, priority 2019, dated 2025).

Broadly, the IC50 is the concentration that inhibits the measured activity by half.

Sequence of PD-1/PD-L1 (Q9NZQ7 19-238): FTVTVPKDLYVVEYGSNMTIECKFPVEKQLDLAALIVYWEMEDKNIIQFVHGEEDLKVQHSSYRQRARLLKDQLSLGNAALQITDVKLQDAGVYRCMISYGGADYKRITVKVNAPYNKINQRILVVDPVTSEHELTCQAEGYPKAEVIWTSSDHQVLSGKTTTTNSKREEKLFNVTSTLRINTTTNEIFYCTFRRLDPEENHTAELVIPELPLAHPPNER

In one assay the target is PD-1/PD-L1 (Homo sapiens (Human), UniProt Q9NZQ7). Description: PD-1/PD-L1 Binding Assay (Alphascreen). The conditions noted are these: numeric values. An outline of the steps:
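PD-1/PD-L1 binding detected by anti-6×His acceptor and streptavidin donor beads after 120 min in the dark at 25 °C. Beforehand, the two proteins were incubated 15 min at 25 °C with inhibitor at 0.015–300 nM (1% DMSO). IC50 comes from a log concentration–response curve.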
In general terms: Bead proximity is the source of the signal in Alpha formats.
Molecule `Cc1c(-c2nc3cc(CNCCO)c(OCc4cncc(S(C)(=O)=O)c4)cc3o2)cccc1-c1cccc(-c2nc3cc(CN4CCC[C@H]4C(=O)O)c(OC(F)F)cc3o2)c1C` [Example 121, ((6-(difluoromethoxy)-2-(3′-(5-(((2-hydroxyethyl)amino)methyl)-6-((5-(methylsulfonyl)pyridin-3-yl)methoxy)benzo[d]oxazol-2-yl)-2,2′-dimethyl-[1,1′-biphenyl]-3-yl)benzo[d]oxazol-5-yl)methyl)-L-proline] showed a 50% inhibitory concentration (IC50) of 0.6 nM. Still for that read-out and setting: the figure for `Cc1c(-c2nc3cc(CN4CC(F)C4)c(OC(F)F)cc3o2)cccc1-c1cccc(-c2nc3cc(CN4CCC[C@H]4C(=O)O)c(OC(F)F)cc3o2)c1C` [Example 9, ((6-(difluoromethoxy)-2-(3′-(6-(difluoromethoxy)-5-((3-fluoroazetidin-1-yl)methyl)benzo[d]oxazol-2-yl)-2,2′-dimethyl-[1,1′-biphenyl]-3-yl)benzo[d]oxazol-5-yl)methyl)-L-proline] is 18 nM; for `Cc1c(-c2nc3cc(CN4CC[C@@H]4CO)c(OC(F)F)cc3o2)cccc1-c1cccc(-c2nc3cc(CN4CCC[C@H]4C(=O)O)c(OC(F)F)cc3o2)c1C` [Example 35, ((6-(difluoromethoxy)-2-(3′-(6-(difluoromethoxy)-5-(((R)-2-(hydroxymethyl)azetidin-1-yl)methyl)benzo[d]oxazol-2-yl)-2,2′-dimethyl-[1,1′-biphenyl]-3-yl)benzo[d]oxazol-5-yl)methyl)-L-proline] it is 0.91 nM. In the case of `Cc1c(Nc2nccc3cc(CN4CCC4)cnc23)cccc1-c1cccc(-c2nc3cc(CN4CCC[C@H]4C(=O)O)c(OC(F)F)cc3o2)c1C` [Example 177, ((2-(3′-((3-(azetidin-1-ylmethyl)-1,7-naphthyridin-8-yl)amino)-2,2′-dimethyl-[1,1′-biphenyl]-3-yl)-6-(difluoromethoxy)benzo[d]oxazol-5-yl)methyl)proline], the IC50 amounted to 0.94 nM. `Cc1c(-c2nc3cc(CN4CC5(C4)CC5(F)F)c(OC(F)F)cc3o2)cccc1-c1cccc(-c2nc3cc(CN4CCC[C@H]4C(=O)O)c(OC(F)F)cc3o2)c1C` [Example 76, ((2-(3′-(5-((1,1-difluoro-5-azaspiro[2.3]hexan-5-yl)methyl)-6-(difluoromethoxy)benzo[d]oxazol-2-yl)-2,2′-dimethyl-[1,1′-biphenyl]-3-yl)-6-(difluoromethoxy)benzo[d]oxazol-5-yl)methyl)-L-proline] displayed an IC50 of 32 nM. Compared with the last molecule, the IC50 is about 34-fold higher. `Cc1c(-c2nc3cc(CN4CCC[C@H]4C(=O)O)c(OC(F)F)cc3o2)cccc1-c1cccc(-c2nc3cc(CN4CCC45COC5)c(OC(F)F)cc3o2)c1C` [Example 39, ((2-(3′-(5-((6-oxa-1-azaspiro[3.3]heptan-1-yl)methyl)-6-(difluoromethoxy)benzo[d]oxazol-2-yl)-2,2′-dimethyl-[1,1′-biphenyl]-3-yl)-6-(difluoromethoxy)benzo[d]oxazol-5-yl)methyl)-L-proline]: the IC50 came to 2.4 nM. The same measure, in the same setting: the figure for `Cc1c(-c2nc3ccc(CN4CC(C)(C)C4)cc3o2)cccc1-c1cccc(-c2nc3cc(CN4CCC[C@H]4C(=O)O)c(OC(F)F)cc3o2)c1C` [Example 109, ((6-(difluoromethoxy)-2-(3′-(6-((3,3-dimethylazetidin-1-yl)methyl)benzo[d]oxazol-2-yl)-2,2′-dimethyl-[1,1′-biphenyl]-3-yl)benzo[d]oxazol-5-yl)methyl)-L-proline] is 1.6 nM; for `Cc1c(-c2nc3cc(CN4CCC[C@@H]4C(=O)O)c(OC(F)F)cc3o2)cccc1-c1cccc(-c2nc3cc(CN4CCC(C)C4)cc(C(F)(F)F)c3o2)c1C` (stereo partly drawn) [Example 90, ((6-(difluoromethoxy)-2-(2,2′-dimethyl-3′-(5-((3-methylpyrrolidin-1-yl)methyl)-7-(trifluoromethyl)benzo [d]oxazol-2-yl)-[1,1′-biphenyl]-3-yl)benzo[d]oxazol-5-yl)methyl)-D-proline] it is 0.88 nM. `Cc1c(-c2ccc(CNCCO)c(F)c2)cccc1-c1cccc(-c2nc3cc(CN4CCC[C@H]4C(=O)O)c(OC(F)F)cc3o2)c1C` [Example 239, ((6-(difluoromethoxy)-2-(3″-fluoro-4″-(((2-hydroxyethyl)amino)methyl)-2,2′-dimethyl-[1,1′:3′,1″-terphenyl]-3-yl)benzo[d]oxazol-5-yl)methyl)-L-proline]: the half-inhibitory concentration (IC50) was determined as 0.99 nM. `COc1cc(-c2cccc(-c3cccc(-c4nc5cc(CN6CCC[C@H]6C(=O)O)c(OC(F)F)cc5o4)c3C)c2C)cc(F)c1CN1CCCC1` [Example 235, ((6-(difluoromethoxy)-2-(3″-fluoro-5″- methoxy-2,2′-dimethyl-4″-(pyrrolidin-1-ylmethyl)-[1,1′:3′,1″-terphenyl]-3-yl)benzo[d]oxazol-5-yl)methyl)-L-proline] gave an IC50 of 1.8 nM. The molecule `Cc1c(-c2ccc3c(c2)CNC3)cccc1-c1cccc(-c2nc3cc(CN4CCC[C@H]4C(=O)O)c(OC(F)F)cc3o2)c1C` [Example 289, ((6-(difluoromethoxy)-2-(3′-(isoindolin-5-yl)-2,2′-dimethyl-[1,1′-biphenyl]-3-yl)benzo[d]oxazol-5-yl)methyl)-L-proline] registered an IC50 of 0.66 nM. This IC50 lies about 2.7-fold lower than the previous one. Still for that read-out and setting: the figure for `Cc1c(-c2ccc(CNCCO)cc2)cccc1-c1cccc(-c2nc3cc(CN4CCC[C@H]4C(=O)O)c(OC(F)F)cc3o2)c1C` [Example 217, ((6-(difluoromethoxy)-2-(4″-(((2-hydroxyethyl)amino)methyl)-2,2′-dimethyl-[1,1′:3′,1″-terphenyl]-3-yl)benzo[d]oxazol-5-yl)methyl)-L-proline] is 0.67 nM.

Staying with this assay, now noted: range symbols.
In turn, `Cc1c(-c2nc3cc(CN4CCC[C@H]4C(=O)O)c(OC(F)F)cc3o2)cccc1-c1cccc(-c2nc3cc(CN4CC(N5CCOCC5)C4)cc(C#N)c3o2)c1C` [Example 148, ((2-(3′-(7-cyano-5-((3-morpholinoazetidin-1-yl)methyl)benzo[d]oxazol-2-yl)-2,2′-dimethyl-[1,1′-biphenyl]-3-yl)-6-(difluoromethoxy)benzo[d]oxazol-5-yl)methyl)-L-proline] showed an IC50 of 5 to 50 nM. `Cc1c(-c2nc3cc(CN4CCC[C@H]4C(=O)O)c(OC(F)F)cc3o2)cccc1-c1cccc(-c2nc3cc(CN4CC(N(C)C)C4)cc(C#N)c3o2)c1C` [Example 134, ((2-(3′-(7-cyano-5-((3-(dimethylamino)azetidin-1-yl)methyl)benzo[d]oxazol-2-yl)-2,2′-dimethyl-[1,1′-biphenyl]-3-yl)-6-(difluoromethoxy)benzo[d]oxazol-5-yl)methyl)-L-proline] gave a half-maximal inhibitory concentration (IC50) of 0.1 to 5 nM. Same read-out and setting: the figure for `Cc1c(-c2nc3cc(CN4CC[C@H](C(=O)O)C4)c(OC(F)F)cc3o2)cccc1-c1cccc(-c2nc3cc(CN4CCC(C)C4)cc(C(F)(F)F)c3o2)c1C` (stereo partly drawn) [Example 92, (3S)-1-((6-(difluoromethoxy)-2-(2,2′-dimethyl-3′-(5-((3-methylpyrrolidin-1-yl)methyl)-7-(trifluoromethyl)benzo [d]oxazol-2-yl)-[1,1′-biphenyl]-3-yl)benzo[d]oxazol-5-yl)methyl)pyrrolidine-3-carboxylic acid] is 0.1 to 5 nM. Regarding `Cc1c(-c2nc3cc(CN4CCC[C@H]4C(=O)O)c(OC(F)F)cc3o2)cccc1-c1cccc(-c2nc3cc(CN4CCCC4)c(F)c(F)c3n2C)c1C` [Example 298, ((2-(3′-(6,7-difluoro-1-methyl-5-(pyrrolidin-1-ylmethyl)-1H-benzo[d]imidazol-2-yl)-2,2′-dimethyl-[1,1′-biphenyl]-3-yl)-6-(difluoromethoxy)benzo[d]oxazol-5-yl)methyl)-L-proline], the half-inhibitory concentration (IC50) fell in the range of 5 to 50 nM. Still for that read-out and setting: to `Cc1c(-c2nc3cc(CN4CCC[C@H]4C(=O)O)c(OC(F)F)cc3o2)cccc1-c1cccc(N2CCC(CN3CCCC3)CC2)c1C` [Example 309, ((6-(difluoromethoxy)-2-(2,2′-dimethyl-3′-(4-(pyrrolidin-1-ylmethyl)piperidin-1-yl)-[1,1′-biphenyl]-3-yl)benzo[d]oxazol-5-yl)methyl)-L-proline] belongs 0.1 to 5 nM; to `Cc1c(-c2nc3cc(CN4CC5(CCNCC5)C4)c(OC(F)F)cc3o2)cccc1-c1cccc(-c2nc3cc(CN4CCC[C@H]4C(=O)O)c(OC(F)F)cc3o2)c1C` [Example 51, ((2-(3′-(5-((2,7-diazaspiro[3.5]nonan-2-yl)methyl)-6-(difluoromethoxy)benzo[d]oxazol-2-yl)-2,2′-dimethyl-[1,1′-biphenyl]-3-yl)-6-(difluoromethoxy)benzo[d]oxazol-5-yl)methyl)-L-proline], 0.1 to 5 nM; to `Cc1c(-c2nc3c(o2)CCN(CC2CCC(=O)N2)C3)cccc1-c1cccc(-c2nc3cc(CN4CCC[C@H]4C(=O)O)c(OC(F)F)cc3o2)c1C` (stereo partly drawn) [Example 193, ((6-(difluoromethoxy)-2-(2,2′-dimethyl-3′-(5-((5-oxopyrrolidin-2-yl)methyl)-4,5,6,7-tetrahydrooxazolo[4,5-c]pyridin-2-yl)-[1,1′-biphenyl]-3-yl)benzo[d]oxazol-5-yl)methyl)proline], 5 to 50 nM. Same read-out and setting: to `Cc1c(Nc2nccc3cc(CN4CCC(O)C4)cnc23)cccc1-c1cccc(-c2nc3cc(CN4CC[C@@H](C(=O)O)C4)c(OC(F)F)cc3o2)c1C` (stereo partly drawn) [Example 181, (3R)-1-((6-(difluoromethoxy)-2-(3′-((3-((3-hydroxypyrrolidin-1-yl)methyl)-1,7-naphthyridin-8-yl)amino)-2,2′-dimethyl-[1,1′-biphenyl]-3-yl)benzo[d]oxazol-5-yl)methyl)pyrrolidine-3-carboxylic acid] belongs 0.1 to 5 nM; to `CC1(C)CN(Cc2cc3nc(-c4cccc(-c5cccc(-c6nc7cc(CN8CCC[C@H]8C(=O)O)c(OC(F)F)cc7o6)c5C#N)c4C#N)oc3cc2OC(F)F)C1` [Example 83, ((2-(2,2′-dicyano-3′-(6-(difluoromethoxy)-5-((3,3-dimethylazetidin-1-yl)methyl)benzo[d]oxazol-2-yl)-[1,1′-biphenyl]-3-yl)-6-(difluoromethoxy)benzo[d]oxazol-5-yl)methyl)-L-proline], 5 to 50 nM.
